This is an account of results in patent US9598361B1, “Amino substituted acetamide derivative” (KING SAUD UNIVERSITY, priority 2016, dated 2017).

Where two headings read alike, the source gives them in different places.

Data set [1] relates to liver and kidney functions. In words: Effect on liver and kidney functions. The format is in vivo, Male Wister rats. As to the method: The effect on liver and kidney functions using the derivatives were investigated as follows. Male Wister rats were divided into 2 groups, each of 10 rats. The 1st group was left as a control and administered the vehicle orally, while the other group was orally administered the synthesized compounds in a dose of 50 mg/kg (for CP 1-7) or a dose of about 100 mg/kg (for CP 8). After the examination period, 6 h after the last dose blood samples were collected from the orbital plexus of rats. Samples were left to clot at room temperature for 30 min then centrifuged at 1000 rpm for 20 min.
The collected sera were used for determination of the activity of both (AST) aspirate aminotransferase and (ALT) alanine aminotransferase as liver markers. In addition, levels of blood urea, serum creatinine were also estimated as kidney markers (Awaad et al., 2013).

The test system of data set [2] is absolute ethanol-induced ulcer. In words: Anti-ulcerogenic activity, absolute ethanol-induced ulcer model. The format is in vivo, male Wistar rats. The note with it: for inhibition in vivo at 100 mg/kg / inhibition in vivo at 50 mg/kg: Rattus norvegicus, po; for score: lesion score 0-5, rats; for inhibition in vivo at 50 mg/kg: read-out: % protection. The protocol: (§1) The biological activities of the investigational compounds (CP1-8) were investigated as follows. Swiss albino mice of both sexes (26-30 g) and male Wistar rats (180-200 g) were purchased from the animal house of King Saud University, KSA. Animals were housed in standard polypropylene cages with wire mesh top and maintained under standard conditions (temperature 23±1.0° C., humidity 55±10%, 12 h light/12 h dark cycle). They were fed a standard pellet diet with water ad libitum and were allowed to adapt to the laboratory environment for one week before experimentation.
Evaluation of the anti-ulcerogenic activity was carried out using absolute ethanol-induced ulcer model as described by Bighettia et al. (2005). Eighteen male Wistar rats were divided into 3 groups each of 6 rats. Group 1 received the vehicle and served as control ulcer, Group 2 received ranitidine (100 mg/kg) and served as standard, and Groups 3 received the target compound at a dose of 50 mg/kg for CP1-7 and a dose of 100 mg/kg for CP8.
Rats of all groups were fasted for 24 h then all medications were administered orally. One hour after treatment, the animals received an oral dose of absolute ethanol (1 ml/200 g) and then sacrificed one hour later, by ether inhalation, the stomachs were rapidly removed, opened along their greater curvature and gently rinsed under running tap water.
Number of lesions in the glandular part of the stomach were measured under an illuminated magnifying microscope (10×). Long lesions were counted and their lengths were measured. Petechial lesions were counted, and then each five petechial lesions were taken as 1 mm of ulcer.
The lesion scores in the mucosal lesions were quantified by the scoring system (0-5) 0=no damage, 1=Local edema and inflammation without ulcers; 2=One ulcer without inflammation; 3=one to two ulcers with inflammation & lesion diameter <1 cm; 4=More than two ulcers with lesion diameter 1-2 cm; 5=Sever ulceration with lesion diameter >2 cm (Morris et al., 1989).
In order to calculate the Ulcer Index (mm), the sum of the total length of long ulcers and petechial lesions in each group of rats was divided by its number. The curative ratio was determined according to the formula: […]

Data set [3] concerns acetic acid induced colitis. In words: Anti-ulcerative colitis activity, acetic acid induced colitis. The format is in vivo, rats. The note with it: for % Protection of control colitis: Table 5, CP8 100 mg/kg; for inhibition in vivo at 50 mg/kg: Rattus norvegicus, po, 120 h, read-out: % Protection; for Wt/l: colon wet weight/length ratio, oral 5 days. As to the method:
as §1
Groups of animals each of 6 rats were used for assessing the anti-ulcerative colitis activity. The first group received dexamesathone at dose 0.1 mg/kg orally to serve as standard; two other groups received water orally and served as normal control and control colitis. Other groups received the tested compounds CP 1-7 at a dose 50 mg/kg and tested compound CP 8 at a dose of 100 mg/kg. Ulcerative colitis was induced by slowly infusion of 2 mL (4%, v/v) acetic acid in saline into the colon through the catheter. Two hours after the induction of colitis, animals received the 1st dose of all medication, then all groups received medication for 5 consecutive days, two hours after the last dose, animals were sacrificed by ether anesthesia, colonic segments (8 cm in length and 3 cm proximal to the anus) were excised, opened and were used for macroscopic scoring (Awaad et al., 2013).
The colonic lesions were assessed as follows. The colon specimens were weighted and wet weight/length ratio was calculated for all the rats. The specimens were examined under a dissecting microscope and the mucosal lesions were quantified by the scoring system (0-5) given by Awaad et al., (2013) after some modifications. The lesion scores were determined as follows: 0=no damage, 1=Local edema and inflammation without ulcers; 2=One ulcer without inflammation; 3=one to two ulcers with inflammation & lesion diameter <1 cm; 4=More than two ulcers with lesion diameter 1-2 cm; 5=Sever ulceration with lesion diameter >2 cm.
The ulcer area was measured using plane glass square. Each cell on the glass square was 1 mm^2 in area and the number of cells was counted and the ulcer area was determined for each colon. The ulcer index was measured by summing the lesion score and the ulcer area for each colon specimen (Awaad et al, 2013).

Where [4] appears, read: Table 7, rat serum, oral 100 mg/kg, mean ± SD, n = 10.
Setting [5] is: Table 7, rats, oral 100 mg/kg, mean ± SD, n = 10.
[6] abbreviates: rats, oral 50 mg/kg (CP 1-7) or 100 mg/kg (CP 8).
Where [7] appears, read: Table 3, protection of control ulcer, oral 100 mg/kg.
The mark [8] stands for this setting: Table 6, rat serum, oral 50 mg/kg, 6 h after last dose, mean ± SD, n = 10.
The mark [9] stands for this setting: Table 6, rats, oral 50 mg/kg, 6 h after last dose, mean ± SD, n = 10.
Where [10] appears, read: Table 2, oral, CP-1-7 50 mg/kg, ranitidine 100 mg/kg.
Where [11] appears, read: Table 4, CP-1-7 50 mg/kg, dexamethasone 0.1 mg/kg.
Where [12] appears, read: Table 2, protection of control ulcer, oral, CP-1-7 50 mg/kg, ranitidine 100 mg/kg.
The mark [13] stands for this setting: Table 4, protection of control colitis, CP-1-7 50 mg/kg, dexamethasone 0.1 mg/kg.

In data set [1] (setting [4]), `NS(=O)(=O)c1ccc(NC(=O)CNc2ccccc2C(=O)O)cc1` [CP8, 2-(2-Hydroxycarbonylphenylamino)-N-(4-aminosulphonylphenyl)acetamide] registered an ALT of 39.70 ± 0.22 U/l and an AST of 66.28 ± 0.40 U/l. In data set [1] (setting [5]), the “Blood Urea” value was found to be 68.60 ± 1.9 mg/dL and the Creatinine turned out to be 0.86 ± 0.03 mg/dL. In data set [1] (setting [6]), the “liver functions (activity of AST and ALT), hepatotoxic manifestation (in words)” value is reported as “didn't reveal hepatotoxic manifestation”; the “nephrotoxic manifestations (in words)” value is on record as “no apparent nephrotoxic manifestations”. In addition, in data set [1] (rats, oral 100 mg/kg, 0.05 level of probability), the “liver and kidney functions versus control (in words)” value is recorded as “not affected”. In addition, the “effect versus ranitidine in reducing ulcer index and ulcer score (in words)” value in data set [2] (CP8 100 mg/kg versus ranitidine 100 mg/kg) was “significantly more effective than the standard”. The compound also gave an inhibition in vivo at 100 mg/kg in data set [2] (setting [7]) of 87.1%. Also, the score in data set [2] (Table 3, oral 100 mg/kg) was found to be 1.20. In data set [3] (dexamethasone 0.1 mg/kg), the “% Protection of control colitis” value came out at 64.2%.

The compound `N#CC1(c2ccccc2)CCN(CC(=O)Nc2ccc(S(N)(=O)=O)cc2)CC1` [CP-1, 2-[(4-Cyano-4-phenyl)piperidinyl]-N-(4-aminosulphonylphenyl)acetamide] returned a melting point of 196 to 198 °C. In data set [1] (setting [8]), the ALT stood at 35.77 ± 1.60 U/l and the AST was determined as 44.43 ± 1.57 U/l. Also, the “Serum Creatinine” value in data set [1] (setting [9]) was 0.88 ± 0.03 mg/dL. Further, in data set [1] (rats, oral 50 mg/kg), the “effect on blood urea concentration (in words)” value is recorded as “slightly elevate”. In addition, in data set [2], the inhibition in vivo at 50 mg/kg amounted to 55.5%. In data set [2] (setting [10]), this compound yielded a score of 3.20. In data set [3], the inhibition in vivo at 50 mg/kg was found to be 31.7%. In addition, the Wt/l in data set [3] (setting [11]) is recorded as 0.79 ± 0.08.

As to `NS(=O)(=O)c1ccc(NC(=O)CN2CCC(O)(c3ccccc3)CC2)cc1` [CP-2, 2-[(4-Hydroxy-4-phenyl)piperidinyl]-N-(4-aminosulphonylphenyl)acetamide], the melting point fell in the range of 221 to 223 °C. In data set [1] (rat, in vivo, po, 50 mg/kg), the ALT stood at 39.70 ± 0.22 U/l, the AST worked out at 66.28 ± 0.40 U/l, the “Blood Urea” value stood at 52.55 ± 1.24 mg/dL and the “Serum Creatinine” value is 0.86 ± 0.03 mg/dL. Further, in data set [2] (setting [12]), the inhibition in vivo at 50 mg/kg was 71.9%. The compound further displayed a score in data set [2] (setting [10]) of 3.20. The inhibition in vivo at 50 mg/kg in data set [3] (setting [13]) came out at 49.1%. Besides, the Wt/l in data set [3] (setting [11]) was 0.74 ± 0.02.

As for `NS(=O)(=O)c1ccc(NC(=O)CN2CCC(c3ccc(Cl)cc3)CC2)cc1` [CP-3, 2-[4(4-Chlorophenyl)piperidinyl]-N-(4-aminosulphonylphenyl)acetamide], the melting point was 270 to 272 °C. In addition, in data set [1] (setting [8]), the ALT is given as 36.87 ± 1.28 U/l and the AST was 44.16 ± 1.57 U/l. Besides, the “Blood Urea” value in data set [1] (setting [9]) amounted to 46.02 ± 1.10 mg/dL. Besides, the “effect on serum creatinine (in words)” value in data set [1] (rats, oral 50 mg/kg) is “slightly elevated”. In data set [2] (setting [12]), the inhibition in vivo at 50 mg/kg turned out to be 90.3%. In data set [2] (setting [10]), this compound displayed a score of 2.20. Further, in data set [3] (50 mg/kg versus dexamesathone 0.1 mg/kg), the “effect versus dexamesathone in reducing all colitis parameters (in words)” value is given as “significantly more effective than dexamesathone”. Also, the inhibition in vivo at 50 mg/kg in data set [3] (setting [13]) came to 64.2%. Besides, in data set [3] (setting [11]), the Wt/l came to 0.64 ± 0.05.

Consider `C[C@@H]1C[C@H]2[C@@H]3CCC4=CC(=O)C=C[C@]4(C)[C@@]3(F)[C@@H](O)C[C@]2(C)[C@@]1(O)C(=O)CO` [Dexamethasone, reference compound], for which the inhibition in vivo at 50 mg/kg in data set [3] (setting [13]) is 59.3%. For the same compound, in data set [3] (setting [11]), the Wt/l came to 0.52 ± 0.07. For the same compound, in data set [3] (dexamethasone 0.1 mg/kg), the “% Protection of control colitis” value amounted to 60%.

For `CNC(=C[N+](=O)[O-])NCCSCc1ccc(CN(C)C)o1` [Ranitidine, ranitidine, reference compound], the inhibition in vivo at 50 mg/kg in data set [2] (setting [12]) is 49.2%. The same compound showed an inhibition in vivo at 100 mg/kg in data set [2] (setting [7]) of 58.8%. The score is 2.20 in data set [2] (setting [10]) and 2.20 in data set [2] (Table 3, oral 100 mg/kg).
